# Results as given in US20230024584A1, “ANTI-CANCER COMPOSITIONS AND METHODS” (University of Kentucky Research Foundation, priority 2019, published 2023).
# How the values were obtained:
# Assay type in all cases: cell-based
# [1] = tested on: DLD1, PT130 and SW480 cells; test: Clonogenic assay, colon cancer cell lines; conditions: 1.25, 2.5 or 5 μM for 72 h, then 10 days culture
# Protocol: Initially, 100 DLD1, PT130 or SW480 cells were seeded into 6-cm cell culture dishes. After overnight culture, vehicle control (DMSO) or lomitapide (final concentration: 1.25, 2.5 or 5 μM) were added into the corresponding dishes. After 72 h culture, the DMSO- or lomitapide-containing media were removed and the fresh culture media were added in followed by additional 10 days culture. The culture media were replaced with fresh media every three days. At the end of cell culture, the final clones in dishes were fixed by 4% paraformaldehyde and stained with crystal violet. FIG. 32A includes representative images from each treatment groups. FIGS. 32B-32D include quantitation of clone numbers (mean±standard deviation, n=3). * p<0.05, compared to vehicle control (negative control) treatment group.
# [2] = tested on: SUM159, MCF-7 and MDA-MB-453 cells; test: Soft agar colony formation assay, breast cancer cell lines; conditions: 1.25, 2.5 or 5 μM, 1 month culture
# Protocol: With reference to FIGS. 23A-23D, soft agar colony formation assays were also performed. Initially, 1000 SUM159 or MCF-7 cells, 10000 MDA-MB-453 cells were seeded into the upper agar of each dish; meanwhile, vehicle control (DMSO) or lomitapide (final concentration: 1.25, 2.5 or 5 μM) were added into the upper agar of corresponding dishes. After 1 month continuous culture, the final colonies formed in the agar were fixed by methanol and stained with crystal violet. FIG. 23A includes representative soft agar images from each treatment groups. FIGS. 23B-23D include the quantitation of soft agar clone numbers (mean standard deviation, n=3). * p<0.05, compared to vehicle control (negative control) treatment group.
# [3] = tested on: SUM159, LM2, MCF-7, MB-MDA-453, 4T1 and 4T1luc cells; test: MTT assay, breast cancer cell lines; conditions: 1.25, 2.5 and 5 μM; 24, 48, 72 h
# Protocol: With reference to FIGS. 21A-21F, MTT assays were performed to determine the effect of lomitapide treatment on various breast cancer cell lines. Initially, 2500 SUM159 or LM2 cells, 5000 MCF-7 or MB-MDA-453 cells, 1000 4T1 or 4T1^1uc cells were seeded into 96-well plates. After overnight culture, vehicle (DMSO) or lomitapide (final concentration: 1.25, 2.5 and 5 μM) were added into the corresponding wells. After 24 h, 48 h, and 72 h incubation, the culture media were aspirated off and 50 μl of 0.5 mg/mL of MTT containing medium was added into each well. After 3 h incubation, 200 μl of DMSO were added into each well. The OD value of each well was read under the wavelength of 570 nm. The results are presented as mean±standard deviation (n=6) * p<0.05, compared to vehicle control (negative control) treatment group.
# [4] = tested on: SUM159, LM2, MCF-7, 4T1, 4T1luc and MDA-MB-453 cells; test: Clonogenic assay, breast cancer cell lines; conditions: 1.25, 2.5 or 5 μM for 72 h, then 10 days culture
# Protocol: Clonogenic assays were also performed to determine the effect of lomitapide treatment on various breast cancer cell lines, with data reflected in FIGS. 22A-22G. Initially, 100 SUM159, LM2, MCF-7, 4T1 or 4T1^luc cells, or 1000 MDA-MB-453 cells were seeded into 6-cm cell culture dishes. After overnight culture, vehicle control (DMSO) or lomitapide (final concentration: 1.25, 2.5 or 5 μM) were added into the corresponding dishes. After 72 h culture, the DMSO- or lomitapide-containing media were removed and the fresh culture media were added in followed by additional 10 days culture. The culture media were replaced with fresh media every three days. At the end of cell culture, the final clones in dishes were fixed by 4% paraformaldehyde and stained with crystal violet. FIG. 22A includes representative images from each treatment groups, and FIGS. 22B-22G include the quantitation of clone numbers (mean standard deviation, n=3). * p<0.05, compared to vehicle control (negative control) treatment group.
# [5] = tested on: PC9, H1975, PC9GR4, H460 and A549 cells; test: MTT assay, lung cancer cell lines; conditions: 1.25, 2.5 and 5 μM; 24, 48, 72 h
# Protocol: FIGS. 27A-27E include the results of studies to determine the effect of lomitapide treatment on lung cancer cell growth of various cell lines as determined by MTT assay. Initially, 1000 PC9, H1975, PC9GR4, H460, or A549 cells were seeded into 96-well plates. After overnight culture, vehicle (DMSO) or lomitapide (final concentration: 1.25, 2.5 and 5 μM) were added into the corresponding wells. After 24 h, 48 h and 72 h incubation, the culture media were aspirated off and 50 μL of 0.5 mg/mL of MTT containing medium was added into each well. After 3h incubation, 200 μl of DMSO were added into each well. The OD value of each well was read under the wavelength of 570 nm. The results are presented as mean±standard deviation (n=6) * p<0.05, compared to vehicle control (negative control) treatment group.
# [6] = tested on: SUM19, MCF-7, MDA-MB-453 and 4T1luc cells; test: Suspension culture sphere formation assay, breast cancer cells; conditions: 1.25, 2.5 or 5 μM, 10 days
# Protocol: With reference to FIGS. 24A and 24B, the effect of lomitapide treatment on cancer stem cell-like property of breast cancer cells was further studied. Initially, 2500 breast cancer SUM19, MCF-7, MDA-MB-453 or 4T1^luc cells were seeded into […] 24-well plates; meanwhile, vehicle control (DMSO) or lomitapide (final concentration: 1.25, 2.5 or 5 μM) were added into corresponding wells. After 10-days continuous culture, the final spheres formed were imaged and counted under an inverted phase-contrast microscope. FIG. 24A includes representative sphere images from each treatment groups. FIG. 24B includes the quantitation of sphere numbers (mean±standard deviation, n=3). * p<0.05, compared to vehicle control (negative control) treatment group.
# [7] = tested on: HCT116, HT29, DLD1, PT130 and SW480 cells; test: MTT assay, colon cancer cell lines; conditions: 1.25, 2.5 and 5 μM; 24, 48, 72 h
# Protocol: With reference to FIGS. 31A-31F, studies were conducted to determine the effect of lomitapide treatment on colon cancer cell growth as determined by the MTT assay. Initially, 1000 HCT116, HT29, DLD1, PT130, or SW480 cells were seeded into 96-well plates. After overnight culture, vehicle (DMSO) or lomitapide (final concentration: 1.25, 2.5 and 5 μM) were added into the corresponding wells. After 24 h, 48 h and 72 h incubation, the culture media were aspirated off and 50 μL of 0.5 mg/mL of MTT containing medium was added into each well. After 3h incubation, 200 μL of DMSO were added into each well. The OD value of each well was read under the wavelength of 570 nm. The results are presented as mean±standard deviation (n=6) * p<0.05, compared to vehicle control (negative control) treatment group.
substance,measurement,setting,value
lomitapide,colon cancer cell growth (clone numbers),[1],significantly reduces colon cancer cell growth
same,breast cancer cell growth (soft agar clone numbers),[2],significantly reduces breast cancer cell growth
same,breast cancer cell growth (MTT),[3],significantly reduces breast cancer cell growth
same,breast cancer cell growth (clone numbers),[4],significantly reduces breast cancer cell growth
same,lung cancer cell growth (MTT),[5],significantly reduces lung cancer cell growth
same,cancer stem cell-like property (sphere numbers),[6],significantly reduces cancer stem cell-like property
same,colon cancer cell growth (MTT),[7],significantly reduces colon cancer cell growth
